Read-outs that look alike come from different tables or passages of the source. Square brackets hold non-standard residues; d marks the D form. Peptide text beside a SMILES is read from it. Oic = O=C(O)[C@@H]1C[C@@H]2CCCC[C@@H]2N1; 1Nal = N[C@@H](Cc1cccc2ccccc12)C(=O)O; 2Nal = N[C@@H](Cc1ccc2ccccc2c1)C(=O)O; hArg = N=C(N)NCCCC[C@H](N)C(=O)O; Cit = NC(=O)NCCC[C@H](N)C(=O)O; PEG = not defined here Bounds are passed on as bounds.

In this test the target is T1, CGRP1 receptor (Homo sapiens, UniProt O60894+Q16602).
T1 construct: SK-N-MC cells express CRLR and RAMP1, which form CGRP1 receptor; endogenous in cells; host or cells: SK-N-MC human neuroblastoma cells
Description: in vitro CGRP1 receptor mediated cAMP assay in SK-N-MC cells. The test is classed as cell-based. An outline of the steps: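 Human SK-N-MC neuroblastoma cells, which endogenously express CRLR/RAMP1, were plated two days before assay and preincubated in plasma-free medium for 15 minutes at room temperature. Cells were then lysed for 30 minutes at 37° C, and cAMP in the lysates was quantified by competitive cAMP-AP chemiluminescent ELISA.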

The mark [1] stands for this setting: Table 2C, unconjugated peptide, read-out: Peptide IC50.

T1 sequence (Q16602 23-461): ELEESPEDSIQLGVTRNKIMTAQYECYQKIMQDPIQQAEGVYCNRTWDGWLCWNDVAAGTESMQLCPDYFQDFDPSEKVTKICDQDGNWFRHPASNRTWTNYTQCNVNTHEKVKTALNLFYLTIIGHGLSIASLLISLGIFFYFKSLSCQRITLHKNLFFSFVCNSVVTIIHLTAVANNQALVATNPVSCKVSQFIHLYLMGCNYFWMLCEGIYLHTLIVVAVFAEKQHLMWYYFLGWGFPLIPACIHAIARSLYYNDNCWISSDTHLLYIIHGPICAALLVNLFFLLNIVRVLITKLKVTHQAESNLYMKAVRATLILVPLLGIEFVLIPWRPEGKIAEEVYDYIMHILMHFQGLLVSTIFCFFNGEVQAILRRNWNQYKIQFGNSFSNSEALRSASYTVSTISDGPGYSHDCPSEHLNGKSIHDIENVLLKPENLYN
T1 sequence (O60894 27-148): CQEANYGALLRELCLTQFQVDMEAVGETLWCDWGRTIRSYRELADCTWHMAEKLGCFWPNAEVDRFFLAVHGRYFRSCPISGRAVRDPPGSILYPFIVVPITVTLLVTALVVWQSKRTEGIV

As to `CC(=O)N[C@@H](Cc1c[nH]c2ccccc12)C(=O)N[C@H](C(=O)N[C@H](C(=O)N[C@@H](Cc1c[nH]cn1)C(=O)N[C@@H](CCCNC(N)=O)C(=O)N[C@@H](CC(C)C)C(=O)N[C@@H](C)C(=O)NCC(=O)N[C@@H](CC(C)C)C(=O)N[C@@H](CC(C)C)C(=O)N[C@@H](CO)C(=O)N[C@@H](CCCNC(N)=O)C(=O)N[C@@H](CO)C(=O)NCC(=O)NCC(=O)N[C@H](C(=O)N[C@H](C(=O)N[C@@H](CCCCNC(=N)N)C(=O)N[C@@H](CCCCN)C(=O)N[C@@H](CC(N)=O)C(=O)N[C@@H](Cc1ccccc1)C(=O)N[C@H](C(=O)N1CCC[C@H]1C(=O)N[C@H](C(=O)N[C@@H](CC(=O)O)C(=O)N[C@H](C(=O)NCC(=O)N1[C@H](C(=O)N[C@@H](Cc2cccc3ccccc23)C(=O)N[C@@H](C)C(=O)N[C@@H](Cc2ccccc2)C(N)=O)C[C@@H]2CCCC[C@@H]21)C(C)C)[C@@H](C)O)C(C)C)C(C)C)C(C)C)[C@@H](C)O)C(C)C` [compound 933] (Ac-WVTH[Cit]LAGLLS[Cit]SGGVV[hArg]KNFVPTDVG[Oic][1Nal]AF-NH2), under setting [1], the IC50 turned out to be 0.88 nM. With `CC(=O)N[C@@H](Cc1c[nH]c2ccccc12)C(=O)N[C@H](C(=O)N[C@H](C(=O)N[C@@H](Cc1cnc[nH]1)C(=O)N[C@@H](CCCNC(N)=O)C(=O)N[C@@H](CC(C)C)C(=O)N[C@@H](C)C(=O)NCC(=O)N[C@@H](CC(C)C)C(=O)N[C@@H](CC(C)C)C(=O)N[C@@H](CO)C(=O)N[C@@H](CCCNC(N)=O)C(=O)N[C@@H](CO)C(=O)NCC(=O)NCC(=O)N[C@H](C(=O)N[C@H](C(=O)N[C@@H](CCCCNC(=N)N)C(=O)N[C@@H](CCCCN)C(=O)N[C@@H](CC(N)=O)C(=O)N[C@@H](Cc1ccccc1)C(=O)N[C@H](C(=O)N1CCC[C@H]1C(=O)N[C@H](C(=O)N[C@@H](CC(=O)O)C(=O)N[C@H](C(=O)NCC(=O)N(C)CC(=O)N[C@@H](Cc1ccccc1)C(=O)N[C@@H](C)C(=O)N[C@@H](Cc1ccccc1)C(N)=O)C(C)C)[C@@H](C)O)C(C)C)C(C)C)C(C)C)[C@@H](C)O)C(C)C` [compound 672], the IC50 (Table 2A, read-out: IC50) is 3.19 to 4.42 nM. With “SEQ ID NO:35 (Ac-WVTHRLAGLLSQSGGVVRCNFVPTDVGPFAF-NH2)”, the “antagonist activity in cAMP assay, in words” value (from here on “antagonist activity”) is given as “well tolerated”. Turning to `CC(=O)N[C@@H](CCCNC(N)=O)C(=O)N[C@@H](CC(C)C)C(=O)N[C@@H](C)C(=O)NCC(=O)N[C@@H](CC(C)C)C(=O)N[C@@H](CC(C)C)C(=O)N[C@@H](CO)C(=O)N[C@@H](CCCNC(N)=O)C(=O)N[C@@H](CO)C(=O)NCC(=O)NCC(=O)N[C@H](C(=O)N[C@H](C(=O)N[C@@H](CCCCNC(=N)N)C(=O)N[C@@H](CCCCN)C(=O)N[C@@H](CC(N)=O)C(=O)N[C@@H](Cc1ccccc1)C(=O)N[C@H](C(=O)N1CCC[C@H]1C(=O)N[C@H](C(=O)N[C@@H](CC(=O)O)C(=O)N[C@H](C(=O)NCC(=O)N1CCC[C@H]1C(=O)N[C@@H](Cc1ccccc1)C(=O)N[C@@H](C)C(=O)N[C@@H](Cc1ccccc1)C(N)=O)C(C)C)[C@@H](C)O)C(C)C)C(C)C)C(C)C` [compound 657] (Ac-[Cit]LAGLLS[Cit]SGGVV[hArg]KNFVPTDVGPFAF-NH2), the half-inhibitory concentration (IC50) (Table 2A, read-out: IC50) is 13 nM. Turning to `CC(=O)N[C@@H](Cc1c[nH]c2ccccc12)C(=O)N[C@H](C(=O)N[C@H](C(=O)N[C@@H](Cc1c[nH]cn1)C(=O)N[C@@H](CCCNC(N)=O)C(=O)N[C@@H](CC(C)C)C(=O)N[C@@H](C)C(=O)NCC(=O)N[C@@H](CC(C)C)C(=O)N[C@@H](CC(C)C)C(=O)N[C@H](CO)C(=O)N[C@@H](CCCNC(N)=O)C(=O)N[C@@H](CO)C(=O)NCC(=O)NCC(=O)N[C@H](C(=O)N[C@H](C(=O)N[C@@H](CCCCNC(=N)N)C(=O)N[C@@H](CCCCN)C(=O)N[C@@H](CC(N)=O)C(=O)N[C@@H](Cc1ccc2ccccc2c1)C(=O)N[C@H](C(=O)N1CCC[C@H]1C(=O)N[C@H](C(=O)N[C@@H](CC(=O)O)C(=O)N[C@H](C(=O)NCC(=O)N1[C@H](C(=O)N[C@@H](Cc2ccccc2)C(=O)N[C@@H](C)C(=O)N[C@@H](Cc2ccccc2)C(N)=O)C[C@@H]2CCCC[C@@H]21)C(C)C)[C@@H](C)O)C(C)C)C(C)C)C(C)C)[C@@H](C)O)C(C)C` [compound 953] (Ac-WVTH[Cit]LAGLL[dS][Cit]SGGVV[hArg]KN[2Nal]VPTDVG[Oic]FAF-NH2), the IC50 under setting [1] was 2.66 nM.

As for “SEQ ID NO:33 (Ac-WVTHRLAGLLSASGGVVRCNFVPTDVGPFAF-NH2)”, the “antagonist activity” value was “not well tolerated”.

For `CC(C)C[C@H](NC(=O)CNC(=O)[C@H](C)NC(=O)[C@H](CC(C)C)NC(=O)[C@H](CCCNC(=N)N)NC(=O)[C@H](Cc1cnc[nH]1)NC(=O)[C@@H](NC(=O)[C@@H](NC(=O)[C@@H](N)Cc1c[nH]c2ccccc12)C(C)C)[C@@H](C)O)C(=O)N[C@@H](CC(C)C)C(=O)N[C@@H](CO)C(=O)N[C@@H](CCCNC(=N)N)C(=O)N[C@@H](CO)C(=O)NCC(=O)NCC(=O)N[C@H](C(=O)N[C@H](C(=O)N[C@@H](CCCCN)C(=O)N[C@@H](CC(N)=O)C(=O)N[C@@H](CC(N)=O)C(=O)N[C@@H](Cc1ccccc1)C(=O)N[C@H](C(=O)N1CCC[C@H]1C(=O)N[C@H](C(=O)N[C@@H](CC(N)=O)C(=O)N[C@H](C(=O)NCC(=O)N[C@@H](CO)C(=O)N[C@@H](CCCCN)C(=O)N[C@@H](C)C(=O)N[C@@H](Cc1ccccc1)C(N)=O)C(C)C)[C@@H](C)O)C(C)C)C(C)C)C(C)C` [compound 4], for the setting “Table 3, unconjugated CGRP peptide analogs, n = 2-4, read-out: IC50”, the IC50 was found to be 0.64 nM. Consider “Ac-WVTHRLAGLLSRPGGVVRKNFVPTDVGPFAF-NH2 [compound 854]”, for which, for the setting “Table 2D, read-out: IC50”, the 50% inhibitory concentration (IC50) amounted to 1.27 nM.

`CC[C@H](C)[C@H](NC(=O)[C@H](CCCNC(N)=O)NC(=O)[C@H](Cc1c[nH]cn1)NC(=O)[C@@H](NC(=O)[C@@H](NC(=O)[C@H](Cc1c[nH]c2ccccc12)NC(C)=O)C(C)C)[C@@H](C)O)C(=O)N[C@@H](CC(C)C)C(=O)N[C@@H](C)C(=O)NCC(=O)N[C@@H](CC(C)C)C(=O)N[C@@H](CC(C)C)C(=O)N1CCC[C@H]1C(=O)N[C@@H](CCCNC(=N)N)C(=O)N[C@@H](CO)C(=O)NCC(=O)NCC(=O)N[C@H](C(=O)N[C@H](C(=O)N[C@@H](CCCNC(=N)N)C(=O)N[C@@H](CCCCN)C(=O)N[C@@H](CC(N)=O)C(=O)N[C@@H](Cc1ccccc1)C(=O)N[C@H](C(=O)N1CCC[C@H]1C(=O)N[C@H](C(=O)N[C@@H](CC(=O)O)C(=O)N[C@H](C(=O)NCC(=O)N1CCC[C@H]1C(=O)N[C@@H](Cc1ccccc1)C(=O)N[C@@H](C)C(=O)N[C@@H](Cc1ccccc1)C(N)=O)C(C)C)[C@@H](C)O)C(C)C)C(C)C)C(C)C` [compound 867] (Ac-WVTH[Cit]ILAGLLPRSGGVVRKNFVPTDVGPFAF-NH2): the half-maximal inhibitory concentration (IC50) under setting [1] turned out to be 2.31 nM. Consider `CC(=O)N[C@@H](Cc1c[nH]c2ccccc12)C(=O)N[C@H](C(=O)N[C@H](C(=O)N[C@@H](Cc1cnc[nH]1)C(=O)N[C@@H](CCCNC(N)=O)C(=O)N[C@@H](CC(C)C)C(=O)N[C@@H](C)C(=O)NCC(=O)N[C@@H](CC(C)C)C(=O)N[C@@H](CC(C)C)C(=O)N[C@@H](CO)C(=O)N[C@@H](CCCNC(N)=O)C(=O)N[C@@H](CO)C(=O)NCC(=O)NCC(=O)N[C@H](C(=O)N[C@H](C(=O)N[C@@H](CCCCN=C(N)N)C(=O)N[C@@H](CCCCN)C(=O)N[C@@H](CC(N)=O)C(=O)N[C@@H](Cc1ccccc1)C(=O)N[C@H](C(=O)N1CCC[C@H]1C(=O)N[C@H](C(=O)N[C@@H](CC(=O)O)C(=O)N[C@H](C(=O)NCC(=O)N1CSC[C@H]1C(=O)N[C@@H](Cc1ccccc1)C(=O)N[C@@H](C)C(=O)N[C@@H](Cc1ccccc1)C(N)=O)C(C)C)[C@@H](C)O)C(C)C)C(C)C)C(C)C)[C@@H](C)O)C(C)C` [compound 671], for which the IC50 (Table 2A, read-out: IC50) stood at 2.15 nM. Regarding `CC(=O)N[C@@H](Cc1c[nH]c2ccccc12)C(=O)N[C@H](C(=O)N[C@H](C(=O)N[C@@H](Cc1c[nH]cn1)C(=O)N[C@@H](CCCNC(N)=O)C(=O)N[C@@H](CC(C)C)C(=O)N[C@@H](C)C(=O)NCC(=O)N[C@@H](CC(C)C)C(=O)N[C@@H](CC(C)C)C(=O)N[C@@H](CO)C(=O)N[C@@H](CCCNC(N)=O)C(=O)N[C@@H](CO)C(=O)NCC(=O)NCC(=O)N[C@H](C(=O)N[C@H](C(=O)N[C@@H](CCCCNC(=N)N)C(=O)N[C@@H](CCCCN)C(=O)N[C@@H](CC(N)=O)C(=O)N[C@@H](Cc1ccccc1)C(=O)N[C@H](C(=O)N1CCC[C@H]1C(=O)N[C@H](C(=O)N[C@@H](CC(=O)O)C(=O)N[C@H](C(=O)NCC(=O)N1[C@H](C(=O)N[C@@H](Cc2ccccc2)C(=O)N[C@@H](C)C(N)=O)C[C@@H]2CCCC[C@@H]21)C(C)C)[C@@H](C)O)C(C)C)C(C)C)C(C)C)[C@@H](C)O)C(C)C` [compound 659] (Ac-WVTH[Cit]LAGLLS[Cit]SGGVV[hArg]KNFVPTDVG[Oic]FA-NH2), the IC50 (Table 2A, read-out: IC50) is > 1000 nM.

For `CC(=O)N[C@@H](Cc1c[nH]c2ccccc12)C(=O)N[C@H](C(=O)N[C@H](C(=O)N[C@@H](Cc1c[nH]cn1)C(=O)N[C@@H](CCCNC(N)=O)C(=O)N[C@@H](CC(C)C)C(=O)N[C@@H](C)C(=O)NCC(=O)N[C@@H](CC(C)C)C(=O)N[C@@H](CC(C)C)C(=O)N[C@@H](CO)C(=O)N[C@@H](CCCNC(N)=O)C(=O)N[C@@H](CO)C(=O)NCC(=O)NCC(=O)N[C@H](C(=O)N[C@H](C(=O)N[C@@H](CCCCNC(=N)N)C(=O)N[C@@H](CCCCN)C(=O)N[C@@H](CC(N)=O)C(=O)N[C@@H](Cc1ccc2ccccc2c1)C(=O)N[C@H](C(=O)N1[C@H](C(=O)N[C@H](C(=O)N[C@@H](CC(=O)O)C(=O)N[C@H](C(=O)NCC(=O)N2[C@H](C(=O)N[C@@H](Cc3ccccc3)C(=O)N[C@@H](C)C(=O)N[C@@H](Cc3ccc4ccccc4c3)C(N)=O)C[C@@H]3CCCC[C@@H]32)C(C)C)[C@@H](C)O)C[C@@H]2CCCC[C@@H]21)C(C)C)C(C)C)C(C)C)[C@@H](C)O)C(C)C` [compound 139] (Ac-WVTH[Cit]LAGLLS[Cit]SGGVV[hArg]KN[2Nal]V[Oic]TDVG[Oic]FA[2Nal]-NH2), where the note is “Table 2A, read-out: IC50”, the half-maximal inhibitory concentration (IC50) is 3.57 nM. On to “SEQ ID NO:40 (Ac-WVTHQLAGLLSQSGGVVRK(PEG)NFVPTDVGPFAF-NH2; reading uncertain)”, for which the “antagonist activity” value was “reasonably good in vitro potency”. On to “766 (Ac-WVTHRLAGLLSRSGGVVRC(20 kDa MeO‑PEG)NFVPTDVGPFAF-NH2) [compound 766]”, for which the IC50 (Table 2D, read-out: IC50) was 4.09 nM.

For the origin of these results see patent US8168592B2 (Amgen Inc., priority 2005, dated 2012).
